# Experimental data: US3997403A, “Antibiotic G-418 and the production thereof” (Schering Corporation, priority 1975, dated 1976)
# Structures can show the parent of a compound that is named as a salt.
# System: Bacillus subtilis A.T.C.C. 6633
# Experiment: standard disc plate microbiological assay
# Type: cell-based
# Conditions: against the standard antibiotic base (1000 mcg/mg)
# Text: The assay is a standard disc plate assay using Difco Antibiotic Medium No. 5 and Bacillus subtilis A.T.C.C. 6633 as the test organism. The physical conditions of the test are substantially those described for neomycin (Grove and Randall), Assay Methods of Antibiotics published by Medical Encyclopedia Incorporated (1955). The assay is run against a standard preparation of Antibiotic G-418 having a defined potency of 1000 mcg/mg. […] The standard antibiotic sulfate salt assays about 750 mcg/mg. against the standard antibiotic base.
compound,measurement,value
CN[C@@H]1[C@@H](O)[C@@H](O[C@@H]2[C@@H](O)[C@H](O[C@H]3O[C@H]([C@@H](C)O)[C@@H](O)[C@H](O)[C@H]3N)[C@@H](N)C[C@H]2N)OC[C@]1(C)O [standard antibiotic sulfate salt],potency of standard antibiotic sulfate salt,about 750 mcg/mg
